Assay results from patent publication US20070167450A1, “Agent for treating chronic pelvic pain syndrome” (Astellas Pharma Inc., priority 2003, published 2007).

Experiments:
[1] = system: Rat Antigen-Induced Cystitis Model; assay: Rat antigen-induced cystitis model: peroxidase activity in bladder extract; assay type: in vivo, Brown Norway (BN) female rats; conditions: bladder removed after 24 hours, saline group 0%, control group 100%
Protocol: Efficacy of PDE 4 Inhibitors in Rat Antigen-Induced Cystitis Model
Antigen sensitization was carried out by intraperitoneally administering physiological saline containing ovalbumin (OA, 1 mg/ml)-aluminum hydroxide gel (Alum, 20 mg/ml) to Brown Norway (BN) female rats, at a dose of 1 ml per animal for 3 continuous days. After completion of the sensitization, a urethral catheter was attached to each animal under anesthesia, 3% OA/physiological saline was injected into the bladder to induce cystitis, and the resulting animals were used as the control group. Also, a group in which physiological saline was injected into the bladder of each sensitized rat was used as the physiological saline group. A group in which compound A (3 mg/kg), roflumilast (3 mg/kg) or cilomilast (30 mg/kg) was orally administered 1 hour before the intravesical antigen injection was used as a compound A administration group, a roflumilast administration group or a cilomilast administration group. After 24 hours of the intravesical antigen injection, the bladder was removed under pentobarbital anesthesia, and bladder extract was prepared in accordance with the method of Malley et al. (Physiological Genomics, (USA), 2002, vol. 9, no. 1, pp. 5-13). Peroxidase activity in the bladder extract was measured in accordance with the method of Bradley et al. (The Journal of Investigative Dermatology, (England), March 1982, vol. 78, no. 3, pp. 206-9) using human myeloperoxidase (manufactured by Sigma) as the standard, and the results were expressed by defining the peroxidase activity of the physiological saline group as 0%, and the peroxidase activity of the control group as 100%.
When antigen-induced cystitis was caused by carrying out antigen injection into the bladder of each of the sensitized BN rats, and peroxidase activity in the bladder tissue was measured as one of the indexes of cystitis, increase in the peroxidase activity in the bladder tissue was found in the control group. […]

[2] = system: Rat Hydrochloric Acid-Induced Cystitis Model; assay: Rat hydrochloric acid-induced cystitis model: intravesical pressure recording; assay type: in vivo, Brown Norway (BN) female rats; conditions: 1 mg/kg orally once a day for 10 days after 0.4 N HCl into the bladder; measured after 11 days under urethane anesthesia
Protocol: Efficacy of PDE 4 Inhibitors in Rat Hydrochloric Acid-Induced Cystitis Model
A bladder disorder was induced by attaching a urethral catheter to each of Brown Norway (BN) female rats under ether anesthesia and injecting 0.4 N hydrochloric acid into the bladder (0.15 ml per one rat). Starting on the next of the bladder disorder induction, the compound A (1 mg/kg) or a vehicle (0.5% methyl cellulose aqueous solution) was orally administered once a day for 10 days, and respectively used as a compound A administration group and a control group. Also, a group in which physiological saline was injected into the bladder (0.15 ml per one rat), and the vehicle was orally administered once a day for 10 days starting on the next day, was used as a physiological saline group. After 11 days of the bladder disorder induction, each rat was fixed in the supine position under urethane anesthesia and equipped with a urethral catheter, and via its three-way cock, one end was used as the injection passage and the other end was connected to a pressure transducer (DX-312, manufactured by NIHON KOHDEN). Physiological saline was continuously injected into the bladder (50 μl/min) using an infusion pump (model 22, Harvard), and the intravesical pressure at that time was amplified by a pre-amplifier (AP-621G, manufactured by NIHON KOHDEN) and recorded using a recorder. […] In comparison with this, in the case of the control group, increase in the resting time intravesical pressure was observed, but increase in the bladder contraction pressure at the time of micturition was hardly found, and micturition frequency was high. In the compound A administration group, increase of the resting time intravesical pressure was inhibited, and increase in the intravesical pressure accompanied by the micturition reflex was also observed.

[3] = 3 mg/kg orally 1 hour before intravesical antigen (OA) injection

| SMILES | inhibition of the increase of peroxidase activity in the bladder tissue ([1]; 30 mg/kg orally 1 hour before intravesical antigen (OA) injection) | increase in the intravesical pressure accompanied by the micturition reflex [2] | increase of the resting time intravesical pressure [2] | interval of the micturition reflex [2] | inhibition of the increase of peroxidase activity in the bladder tissue [1, 3] |
| --- | --- | --- | --- | --- | --- |
| COc1ccc([C@]2(C#N)CC[C@@H](C(=O)O)CC2)cc1OC1CCCC1 [cilomilast] | 68% |  |  |  |  |
| CCn1c(=O)c(CCC(=O)O)c(-c2cccc(Cl)c2)c2ccc(C)nc21 [compound A, 3-[4-(3-chlorophenyl)-1-ethyl-7-methyl-2-oxo-1,2-dihydro-1,8-naphthyridin-3-yl]propanoic acid] |  | observed | inhibited | almost the same as that of the physiological saline administration group | 72% |
| O=C(Nc1c(Cl)cncc1Cl)c1ccc(OC(F)F)c(OCC2CC2)c1 [roflumilast] |  |  |  |  | 79% |
